Reference: PMC10721786, “Development of a potent benzonitrile-based inhibitor of glutaminyl-peptide cyclotransferase-like protein (QPCTL) with antitumor efficacy” (Signal Transduction and Targeted Therapy, 2023)

Experiments:
[1] = tested on: B16F10 cells; experiment: Tumor challenge: B16F10 tumors in C57BL/6 mice; format: in vivo; conditions: B16F10 in C57BL/6 mice, anti-CD3 antibody 200 µg/mouse, QP5038 25 mg/kg daily
Experimental: C57BL/6 mice were obtained from Shanghai Slaccas Laboratory Animal Co., Ltd.. Male mice were implanted subcutaneously with 1 x 10^^6 B16F10 cells resuspended in 100μL of DMEM on Day 0. Anti-PD-1 (Clone RMP1-14, BioXCell, Cat. # BE0146) or mouse IgG2a isotype control (Clone 2A3, BioXCell, Cat. # BE0089) was dosed at 80 µg per mouse intraperitoneally starting on day 12 after tumor implantation, followed by a once-a-week regimen. QPCTL inhibitor was intraperitoneally administered at 25 mg/kg once a day. Tumors were measured daily, and mice were sacrificed 24 days after tumor challenge. Tumor volumes were measured in two dimensions (length and width) and the volume was calculated using the formula, tumor size (mm^3) = (length × width^2) × 0.5.
Briefly, male mice were implanted subcutaneously with 5 x 10^5 B16F10 cells resuspended in 100 μL of DMEM on Day 0. Anti-PD-1 antibody or mouse IgG2a isotype control was dosed at 80 µg per mouse intraperitoneally starting on day 6 after tumor implantation, followed by a once-a-week regimen. QPCTL inhibitors was intraperitoneally administered at 25 mg/kg once a day since day 6. Tumors were measured every three days, and mice were sacrificed on day 15. […]
Tumor challenge with T cell depletion. […] Animal weights and tumor volumes were measured twice weekly throughout the study. […] Data were acquired on flow cytometry analyzer and analyzed using Flowjo software.

[2] = tested on: pGlu-CD47; experiment: Flow cytometry of pGlu-CD47 (hCD47-CC2C6 binding) in Raji cells; format: cell-based, human; conditions: 100 nM, 48 h
Experimental: (§1) Binding to cell surface CD47 was assessed by staining cells with fluorochrome-labeled antibodies clone CC2C6 (BioLegend, Cat. # 323102) and B6H12 (Abcam, Cat. # ab134485) to human CD47 at a dilution of 1:100 in PBS containing 1% FBS (FACS buffer) for 30 min on ice, while protected from light. SIRPα binding to CD47 was assessed by incubating cells with PE labeled recombinant human SIRPα/ CD172α Protein, Fc tag (ACRO Biosystems, Cat. # SIA-HP252) or PE labeled mouse SIRPα Protein, His tag (ACRO Biosystems, Cat. # SIA-MP2H6) for 1 hour on ice, while protected from light.

[3] = tested on: pGlu-CD47; experiment: Flow cytometry of pGlu-CD47 (hCD47-CC2C6 binding) in HEK293T cells; format: cell-based, human
Experimental: as §1

[4] = tested on: CD47; experiment: Overall cell surface CD47 (hCD47-B6H12 binding) in HEK293T and Raji cells; format: cell-based, human; conditions: 100 nM, 48 h
Experimental: as §1

[5] = tested on: pGlu-CD47; experiment: hCD47-CC2C6 binding to various cancer cells (H929, HCT116, Huh7, SKOV3, SU-DHL-8, T24, H1299, MCF-7); format: cell-based, human; conditions: 500 nM, 48 h
Experimental: as §1

[6] = tested on: BMDM cells; experiment: Cell viability and phagocytosis ability of BMDM; format: cell-based, mouse
[7] = tested on: senescent cells; experiment: Efferocytosis of apoptotic Jurkat cells by macrophages after co-culture with senescent cells; format: cell-based, mouse; conditions: pretreatment, 4 days, Fig. S7
Experimental: Apoptotic corpse generation. Jurkat cells were cultured in a T25 flask and apoptotic corpses were inducted by exposure to 5 μM camptothecin (Tsbiochem, CAT. # t2764) for 4 hours. Apoptosis induction was confirmed by apoptoic kit (Beyotime Biotechnology, Cat. # C1062M) through flow cytometry.
Senescence induction. B16F10 Cells were plated (96-well plate: 2000 cells/well) and rested over night before exposure to 10 μM cisplatin (APExBIO, Cat. # A8321). Cisplatin exposed cells were subsequently cultured for 4 or 7 days (without media change) and senescent cells were evaluated by β-Galactosidase staining using a SA-β-Gal staining Kit (Solarbio, Cat. # G1580-100T) according to the manufacturer’s instructions. Senescent cells were identified as blue stained cells under light microscopy.
Efferocytosis after co-culture. Senescent cells were plated in 96-well plates (2000 cells/well) and inducted as described before. QPCTL inhibitors were added every other day to the cells. For co-culture conditions BMDMs were added to the senescent cells. Senescent cells and macrophages were co-cultured for 16 hours. […] Following removal of unbound corpses by washing three times with PBS, macrophages were marked with APC-labeled anti-F4/80, and the co-culture was analyzed by flow cytometry. Efferocytosis was calculated as the percentage of CFSE^+F4/80^+ cells among F4/80^+ cells.

Cn1cncc1C1CCN(c2c(C#N)cccc2-c2ccc(F)nc2)CC1 [QP5038]
enhancement of anti-PD-1 antibody-mediated tumor inhibition under T cell depletion [1]: blocked the enhancement | inhibitory effect on CD47 pyroglutamation compared to SEN177 and PQ912 [2]: superior inhibitory effects | inhibitory effect on CD47 pyroglutamation compared to SEN177 and PQ912 ([3]; 100 nM, 48 h): superior inhibitory effects | IC50 ([3]; Homo sapiens, HEK-293T, treatment 48 h, read-out: IC50, dose-dependent inhibition of pGlu-CD47): 3.3 ± 0.5 nM | overall cell surface levels of CD47 [4]: did not alter | CD47 pyroglutamation in various types of cancer cells [5]: significantly attenuated | cell viability of macrophages ([6]; Fig. S8a): did not attenuate | phagocytotic ability of macrophages ([6]; apoptotic Jurkat cells, Fig. S8b): did not attenuate | inhibitory effect of senescent cells on macrophage-mediated phagocytosis of apoptotic cells [7]: could block the inhibitory effect
